Laboratory results taken from article PMC9967275, “Screening the Pathogen Box to Discover and Characterize New Cruzain and TbrCatL Inhibitors” (Pathogens, 2023).
Entries after “also recorded” stand apart in the source; their conditions may differ. Like-named read-outs stand apart in the source and are kept apart here.

What was measured:
cruzain [1] = biological target: T1, cruzain (Trypanosoma cruzi, UniProt P25779); assay: biochemical
How it was run: (§1)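 Recombinant enzymes assayed by Z-Phe-Arg-AMC cleavage at 25 °C, fluorescence 340/440 nm over 5–7 min, with 10 min or no enzyme–compound preincubation.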

SARS-CoV-2 MPro = tested on: SARS-CoV-2 MPro; set-up: method as in PMID 33655614; conditions: read-out: IC50 against MPro; cited from earlier work
[2] = tested on: porphobilinogen deaminase; set-up: method as in earlier work; conditions: cited from earlier work
DNA minor groove = tested on: DNA minor groove; set-up: method as in PMID 18247550, PMID 22497334; conditions: SPR, ITC, CD, and Tm experiments; cited from earlier work
ferrochelatase = tested on: ferrochelatase; set-up: method as in earlier work; conditions: cited from earlier work
[3] = set-up: method as in earlier work; conditions: cited from earlier work
T. cruzi = conditions: read-out: EC50 against T. cruzi; cited from earlier work
cruzain [4] = biological target: T1, cruzain; assay: Mechanism of inhibition against cruzain (Michaelis-Menten, Lineweaver-Burk); type: biochemical; set-up: Cruzain is the truncated, recombinant-expressed cruzipain 1; Brian Shoichet (University of California San Francisco)
Protocol: Non-linear regression to Michaelis-Menten models and linear regression for the Lineweaver-Burk plot were performed. Ki was estimated by both methods. The effect of the inhibitor concentration on the Km app was evaluated using the General Linear F-test.

cruzain [5] = biological target: T1, cruzain; assay: Aggregation counter-assays: cruzain inhibition at varying Triton X-100 and after pre-incubation with BSA; type: biochemical; set-up: Cruzain is the truncated, recombinant-expressed cruzipain 1; Brian Shoichet (University of California San Francisco)
Protocol: To assess the effects of the Triton X-100 concentration on cruzain inhibition, assays were performed using 0.001%, 0.01%, and 0.1% Triton X-100. To evaluate the impact of pre-incubation with bovine serum albumin (BSA), 50 µL of a solution of the compound in the assay buffer containing 0.001% of Triton X-100 was incubated with 4 mg/mL of BSA (Sigma-Aldrich) for 10′ in a 96-well plate. Next, 50 µL of a solution containing circa 2 nM of cruzain in the same buffer was added to each well and incubated for another 10′. Finally, 100 µL of a solution of 5 µM Z-FR-AMC in the same buffer was added to each well and the fluorescence was immediately read. The final compound concentration varies and was selected to be near the compound IC50.
To investigate if inhibition was due to colloidal aggregation, a common cause of unspecific enzyme inhibition in in vitro assays, we employed two well-established experiments: the comparison of percentages of inhibition at varying Triton X-100 concentrations and the effect of compound pre-incubation with BSA on the percentage of inhibition. […] Pre-incubating a compound that aggregates with BSA saturates the protein-binding capacity of the aggregate.

TbrCatL = biological target: T2, TbrCatL (Trypanosoma brucei rhodesiense, UniProt Q95PM0); assay: TbrCatL enzymatic inhibition assay (cleavage of fluorogenic substrate Z-FR-AMC); type: biochemical
T2 construct: Conor Caffrey (University of California San Diego)
How it was run: as §1

T1 sequence (P25779 123-337 limits assumed): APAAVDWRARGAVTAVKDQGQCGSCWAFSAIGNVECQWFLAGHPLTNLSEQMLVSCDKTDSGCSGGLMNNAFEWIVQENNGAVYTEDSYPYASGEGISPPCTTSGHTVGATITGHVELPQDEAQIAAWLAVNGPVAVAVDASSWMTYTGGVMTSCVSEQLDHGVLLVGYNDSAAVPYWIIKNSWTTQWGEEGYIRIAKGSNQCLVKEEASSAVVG
T2 sequence (Q95PM0 entry or part of it): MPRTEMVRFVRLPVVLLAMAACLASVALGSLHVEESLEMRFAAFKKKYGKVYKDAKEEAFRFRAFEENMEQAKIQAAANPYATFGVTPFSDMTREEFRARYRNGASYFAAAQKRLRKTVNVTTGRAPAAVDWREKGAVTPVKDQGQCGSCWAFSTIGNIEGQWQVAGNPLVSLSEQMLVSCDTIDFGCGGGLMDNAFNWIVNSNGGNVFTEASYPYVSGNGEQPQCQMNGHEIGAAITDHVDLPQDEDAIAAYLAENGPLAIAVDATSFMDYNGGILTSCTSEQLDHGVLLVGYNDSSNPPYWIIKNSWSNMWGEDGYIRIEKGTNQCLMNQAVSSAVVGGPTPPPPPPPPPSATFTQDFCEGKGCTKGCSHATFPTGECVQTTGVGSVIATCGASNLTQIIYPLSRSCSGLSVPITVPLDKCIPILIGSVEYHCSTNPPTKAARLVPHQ

Structure (SMILES): N=C(N)Nc1ccc(-c2ccc(-c3ccc(NC(=N)N)cc3Cl)o2)c(Cl)c1 [MMV688179]
- IC50 (cruzain [1]; IC50 (µM ± SEM %) Cruzain 0′, no pre-incubation): 0.46 ± 0.03 µM
- IC50 (cruzain [1]; IC50 (µM ± SEM %) Cruzain 10′ inc, 10′ pre-incubation): 0.53 ± 0.03 µM
- inhibition at 5 µM (cruzain [1]; read-out: Cruzain 0’ Inhibition, 0’ (pre-incubation time), sheet "Screening results"): 102%
- inhibition at 5 µM (cruzain [1]; read-out: Cruzain 10’ Inhibition, 10’ (pre-incubation time), sheet "Screening results"): 110%
- inhibition at 5 µM (cruzain [1]; read-out: Inhibition at 5 µM (Mean ± SEM %) Cruzain 0′, 5 µM, no pre-incubation, initial screening): 98 ± 2%
- inhibition at 5 µM (cruzain [1]; read-out: Inhibition at 5 µM (Mean ± SEM %) Cruzain 10′ inc, 5 µM, 10′ pre-incubation, initial screening): 100%
- inhibition at 100 µM (cruzain [1]; read-out: Inhibition at 100 µM (Mean ± SEM %) Cruzain 0′, 100 µM, no pre-incubation, solid samples): 100%
- inhibition at 100 µM (cruzain [1]; read-out: Inhibition at 100 µM (Mean ± SEM %) Cruzain 10′ inc, 100 µM, 10′ pre-incubation, solid samples): 100%
- inhibition at 5 µM (cruzain [1]; read-out: Inhibition of cruzain or TbrCatL (either enzyme) in the initial screening, 5 µM, either cruzain or TbrCatL, with or without pre-incubation): ≥ 60%
- IC50 (SARS-CoV-2 MPro): 1.6 µM
- Inhibition of porphobilinogen deaminase [2]: lack of MMV688179 inhibition
- Binding to the DNA minor groove (DNA minor groove): known to bind to the DNA minor groove
- Inhibition of ferrochelatase (ferrochelatase): lack of MMV688179 inhibition
- CC50 [3]: 11.6 µM
- EC50 (T. cruzi): 27 µM
- Mechanism of inhibition of cruzain (cruzain [4]): competitive inhibitor; also recorded: competition with the substrate
- Ki (cruzain [4]; competitive model, read-out: Ki against cruzain from non-linear regression of the Michaelis-Menten competitive model): 0.165 ± 0.063 µM
- Ki (cruzain [4]; linear regression of Kmapp, read-out: Ki against cruzain from the linear regression of Kmapp): 0.206 µM
- % Cruzain Inhibition (Mean ± SEM) 0.001% Triton + BSA 1 mg/mL (cruzain [5]; 0.001% Triton + BSA 1 mg/mL, compound µM: MMV687246 12.5, MMV687812 3.125, MMV688179 1.563, MMV688362 3.125, MMV688466 6.25, MMV690028 25): 89 ± 8%
- % Cruzain Inhibition (Mean ± SEM) 0.001% Triton X-100 (cruzain [5]; 0.001% Triton X-100, compound µM: MMV687246 12.5, MMV687812 3.125, MMV688179 1.563, MMV688362 3.125, MMV688466 6.25, MMV690028 25): 85 ± 6%
- % Cruzain Inhibition (Mean ± SEM) 0.01% Triton X-100 (cruzain [5]; 0.01% Triton X-100, compound µM: MMV687246 12.5, MMV687812 3.125, MMV688179 1.563, MMV688362 3.125, MMV688466 6.25, MMV690028 25): 80 ± 1%
- % Cruzain Inhibition (Mean ± SEM) 0.1% Triton X-100 (cruzain [5]; 0.1% Triton X-100, compound µM: MMV687246 12.5, MMV687812 3.125, MMV688179 1.563, MMV688362 3.125, MMV688466 6.25, MMV690028 25): 82 ± 13%
- Colloidal aggregation assessment (cruzain [5]; near the IC50): do not suggest aggregation properties near the IC50
- IC50 (TbrCatL; IC50 (µM ± SEM %) TbrCatL 0′, no pre-incubation): 4 ± 1 µM
- IC50 (TbrCatL; IC50 (µM ± SEM %) TbrCatL 10′ inc, 10′ pre-incubation): 5 ± 2 µM
- IC50 against TbrCatL relative to cruzain (TbrCatL; TbrCatL vs cruzain): 10 fold
- inhibition at 5 µM (TbrCatL; read-out: Inhibition at 5 µM (Mean ± SEM %) TbrCatL 0′): 50 ± 3%
- inhibition at 5 µM (TbrCatL; read-out: Inhibition at 5 µM (Mean ± SEM %) TbrCatL 10′ inc): 58 ± 25%
- inhibition at 100 µM (TbrCatL; read-out: Inhibition at 100 µM (Mean ± SEM %) TbrCatL 0′): 100%
- inhibition at 100 µM (TbrCatL; read-out: Inhibition at 100 µM (Mean ± SEM %) TbrCatL 10′ inc): 100%
- inhibition at 5 µM (TbrCatL; read-out: TbrCatL 0’ Inhibition): 50%
- inhibition at 5 µM (TbrCatL; read-out: TbrCatL 10’ Inhibition): 58%
